Values joined by “and” are separate entries in the source; they are usually repeats but may differ in a detail not shown here. Equal entries are not always repeated.
How the values were obtained:
individuals [1] = assay: Measurement of blood pressure: brachial diastolic and systolic, right upper arm, after transdermal CO2 vapor treatment; format: in vivo, human; parameters: Brachial Systolic / Brachial Diastolic: unit not given here; conditions: for Brachial Diastolic Percent / Brachial Systolic Percent: percent of pre-treatment; for Brachial Diastolic Percent / Brachial Systolic Percent / Brachial Diastolic / Brachial Systolic: per patient
Method: (§1) The treatment was administered by having an individual insert the left thumb into the open-ended delivery outlet of a device disclosed herein creating a seal. The digit will be “bathed” for five minutes with a vapor including supersaturated dissolved molecular carbon dioxide from a canister providing pure, medical-grade carbon dioxide. Nine individuals were examined.
To conduct this study, individuals from the study described in Example 1 had there blood pressure taken. A measurement of both brachial diastolic blood pressure and systolic blood pressure was performed on the individual's right upper arm at six time points 1) 5 minutes before treatment (pre-treatment); 2) 5 minutes post-treatment; 3) 30 minutes post-treatment; 4) 60 minutes post-treatment; 5) 120 minutes post-treatment; and 6) 240 minutes post-treatment.

individuals [2] = assay: Measurement of blood flow: Skin Perfusion Pressure (SensiLase System, laser Doppler) on right toe after transdermal CO2 vapor treatment of left thumb; format: in vivo, human; conditions: for SPP: right toe
Method: as §1
Tissue perfusion in distal arteries was accessed using a SensiLase System (a FDA-cleared device) and measuring Skin Perfusion Pressure (SPP) and Pulse Volume Recording (PVR). SPP is a pressure measurement in mmHg that assess local blood perfusion in capillaries using a laser Doppler to measure reactive hyperemia, which reflects microcirculation for distal arterial blood flow. PVR is a measurement of plethysmography to assess changes in arterial blood volume. A change in capillary blood flow (CBF) is calculated by determining the change in SPP values over time. For this study, the CBF values of all post-treatment measurements were calculated by dividing the post-treatment SPP value by the pre-treatment SPP value. A measurement of SPP was performed on the individual's right toe at six time points 1) 5 minutes before treatment (pre-treatment); 2) 5 minutes post-treatment; 3) 30 minutes post-treatment; 4) 60 minutes post-treatment; 5) 120 minutes post-treatment; and 6) 240 minutes post-treatment.

[3] = Post Treatment (5 min), right upper arm
[4] = nine individuals, 5-240 min post-treatment
[5] = seven of the nine individuals studied

Compound: O=C=O [molecular carbon dioxide, carbon dioxide]
- Brachial Diastolic Percent (individuals [1]; Post Treatment (5 min)): 98% and 100% and 77% (2×) and 113% and 80% (2×) and 89% and 111%
- Brachial Systolic Percent (individuals [1]; Post Treatment (5 min)): 92% (2×) and 94% (2×) and 95% and 79% and 98% and 73% and 80%
- Brachial Diastolic (individuals [1]; [3]): 78 and 68 (3×) and 60 (2×) and 72 (2×) and 80
- Brachial Systolic (individuals [1]; [3]): 110 (2×) and 132 and 104 and 98 and 124 and 101 and 112 (2×)
- Brachial Diastolic (individuals [1]; Post Treatment (30 min)): 70 (3×) and 58 and 62 and 78 and 80 and 52
- Brachial Systolic (individuals [1]; Post Treatment (30 min)): 110 and 98 and 100 and 112 (2×) and 118 (3×)
- Brachial Diastolic Percent (individuals [1]; Post Treatment (30 min)): 88% and 73% and 103% and 87% (2×) and 100% and 67% and 92%
- Brachial Systolic Percent (individuals [1]; Post Treatment (30 min)): 92% and 89% and 96% and 80% and 94% and 81% and 84% and 97%
- Brachial Diastolic (individuals [1]; Post Treatment (60 min)): 82 and 70 and 78 (2×) and 60 and 68 and 50 and 72 and 62
- Brachial Systolic (individuals [1]; Post Treatment (60 min)): 138 and 118 (2×) and 115 and 150 and 106 and 110 (2×) and 128
- Brachial Diastolic Percent (individuals [1]; Post Treatment (60 min)): 108% and 97% and 98% and 88% and 87% (2×) and 83% and 90% and 79%
- Brachial Systolic Percent (individuals [1]; Post Treatment (60 min)): 99% and 97% and 96% (2×) and 107% and 106% and 79% and 102% and 86%
- Brachial Diastolic (individuals [1]; Post Treatment (120 min)): 68 (2×) and 70 (2×) and 60 and 49 and 62 and 65 and 69
- Brachial Systolic (individuals [1]; Post Treatment (120 min)): 120 and 128 and 90 and 127 and 102 and 110 and 111 and 116 and 118
- Brachial Diastolic Percent (individuals [1]; Post Treatment (120 min)): 89% and 97% and 75% and 72% (2×) and 79% and 117% and 86% and 87%
- Brachial Systolic Percent (individuals [1]; Post Treatment (120 min)): 86% (2×) and 105% and 75% and 91% and 93% and 106% and 79% and 92%
- Brachial Diastolic (individuals [1]; Post Treatment (240 min)): 70 and 64 and 59 and 80 and 68 and 58 and 62 and 71 and 69
- Brachial Systolic (individuals [1]; Post Treatment (240 min)): 118 (2×) and 108 (2×) and 113 and 140 and 112 (2×) and 117
- Brachial Diastolic Percent (individuals [1]; Post Treatment (240 min)): 92% and 89% (2×) and 74% and 118% and 87% and 97% and 69% and 88%
- Brachial Systolic Percent (individuals [1]; Post Treatment (240 min)): 84% and 89% and 94% (2×) and 100% and 102% and 104% and 80% and 85%
- effect on blood pressure (individuals [1]; [4]): decreased blood pressure in all individuals examined at some point during the time period measured
- duration of decrease in diastolic and systolic blood pressure (individuals [1]; [5]): decreased diastolic and systolic blood pressure over the course of the entire 240 minute study
- CBF (individuals [2]; Post Treatment (5 min), post-treatment SPP / pre-treatment SPP, per patient): 124% and 104% and 102% and 87% and 117% and 122% and 109% and 113% and 114%
- SPP (individuals [2]; Post Treatment (5 min), one value per patient (1-9), 5 min vapor on left thumb): 52 mmHg and 85 mmHg and 84 mmHg and 60 mmHg and 75 mmHg and 89 mmHg and 116 mmHg and 71 mmHg and 132 mmHg
- CBF (individuals [2]; Post Treatment (30 min), post/pre-treatment SPP, per patient): 124% and 112% and 109% and 91% and 119% and 92% and 106% and 114%
- SPP (individuals [2]; Post Treatment (30 min), per patient): 54 mmHg and 0 mmHg and 92 mmHg and 75 mmHg and 58 mmHg and 87 mmHg and 97 mmHg and 67 mmHg and 142 mmHg
- CBF (individuals [2]; Post Treatment (60 min), post/pre-treatment SPP, per patient): 124% (2×) and 102% and 104% and 112% and 84% and 103% and 114% and 134%
- SPP (individuals [2]; Post Treatment (60 min), per patient): 54 mmHg (2×) and 84 mmHg and 85 mmHg and 77 mmHg and 75 mmHg and 131 mmHg and 72 mmHg and 156 mmHg
- CBF (individuals [2]; Post Treatment (120 min), post/pre-treatment SPP, per patient): 138% and 135% and 109% and 112% and 125% and 129% and 82% and 106% and 119%
- SPP (individuals [2]; Post Treatment (120 min), per patient): 58 mmHg and 111 mmHg and 89 mmHg and 77 mmHg and 80 mmHg and 94 mmHg and 87 mmHg and 67 mmHg and 138 mmHg
- CBF (individuals [2]; Post Treatment (240 min), post/pre-treatment SPP, per patient): 110% and 120% and 135% and 46% and 95% and 104% and 82% and 103% and 115%
- SPP (individuals [2]; Post Treatment (240 min), per patient): 46 mmHg and 98 mmHg and 111 mmHg and 32 mmHg and 61 mmHg and 76 mmHg and 91 mmHg and 65 mmHg and 133 mmHg
- increase in capillary blood flow (individuals [2]; four of these (of the seven of nine individuals)): ≥ 35%
- effect on blood flow (individuals [2]; [4]): increases blood flow in all individuals examined at some point during the time period measured
- increase in capillary blood flow over baseline (individuals [2]; [5]): about 25%
- duration of increase in capillary blood flow (individuals [2]; six of the nine patients): sustained increases in capillary blood flow over the course of the entire 240 minute study
